Laboratory results published in patent US20260263429A1, “INHIBITORS OF CA 2+/CALMODULIN-DEPENDENT PROTEIN KINASE II (CAMKII) THAT DO NOT INHIBIT LONG-TERM POTENTIATION (LTP) INDUCTION AND THERAPEUTIC USES THEREOF” (The Regents of the University of Colorado, A Body Corporate, priority 2023, published 2026).
Where two headings read alike, the source gives them in different places.

Experiments:
[1] = tested on: CaMKIIα binding to GST-GluN2B-c; details: 4 mM ADP or AS105
Experimental: (§1) In a series of exemplary methods, an in vitro kinase assay was used where purified CaMKIIα is incubated at 30° C. with GST-GluA1 alongside ATP. CaMKIIα normally phosphorylates S831 on the GluA1 subunit and this phosphorylation can be measured as a readout of CaMKIIα enzymatic activity (see e.g., FIG. 8B). […] In another exemplary method, binding of purified CaMKIIα to immobilized GST-GluN2B-c was induced by Ca^2+/CaM in the presence of a vehicle (none), 4 mM ADP or with […] AS105. […] At the same time, two exemplary methods were performed to observe ionomycin or chemical LTP (cLTP) induced co-localization of CaMKII and GluN2B either in HEK293 cells co-expressing GFP-CaMKII and mCherry-2BC or dissociated rat hippocampal cultures expressing GFP-CaMKII and mCh-PSD95 intrabody. HEK293 cells, incubating with vehicle or 10 μM AS105, were subjected to ionomycin. Hippocampal cultures, also incubating with either vehicle or 10 μM AS105, were treated with a chemical LTP (cLTP) stimulus (e.g., 100 μM glutamate, 10 μM glycine for 45 seconds). Confocal microscopy images were taken before and after each stimulus.
(§2) One possible mechanism by which AS283 could enhance GluN2B binding more than ATP is by suppressing CaMKII-mediated phosphorylation of GluN2B at S1303, as this phosphorylation within the CaMKII binding site on GluN2B reduces CaMKII binding.
Bound CaMKII was measured via immunoblot.

purified CaMKIIα [2] = target: T1, purified CaMKIIα (Homo sapiens, UniProt Q9UQM7); test: In vitro kinase reactions with purified CaMKIIα (GluA1 S831, T286, GluN2B S1303 phosphorylation); type: biochemical; parameters: made in house; host or cells: baculovirus/Sf9 (CaMKIIα); BL21 bacteria (CaM); details: GST-GluA1 S831 phosphorylation, 30° C., half-maximal response, four experiments; read-out: Km value of ATP (to activate CaMKII)
Experimental: as §1
Therefore, in another exemplary method, the ability of AS283 to selective inhibit CAMKII enzymatic activity without interfering with its binding to GluN2B was tested. In a first method, in vitro kinase reactions were performed at 30° C. in 1 mM ATP measuring purified CaMKIIα phosphorylation of GST-GluA1 S831 with varying concentrations of AS283 (0.41-10 μM).
as §2
In vitro phosphorylation assays. CaMKII-mediated phosphorylation of GluA1 S831 was measured by in vitro kinase reaction with purified GST-GluA1 c-terminal tail. Reactions contained 40 nM CaMKII (or water for negative controls), 1 μM GST-GluA1, 50 mM PIPES pH 7.1, 2 mM CaCl2), 10 mM MgCl2, 1 μM calmodulin, 1-4 mM ATP, and 1 PM of okadaic acid. Reactions were done at 30° C. for 20 s; reactions were stopped by adding SDS-loading buffer and incubation in a boiling water bath for 5 min. GST, phospho-S831, CaMKII, phospho-T286, or phospho-S1303 were detected in the samples by immunoblot analysis.
Km and Ki determination. The inhibition constant Ki was calculated using the Cheng-Prusoff equation for competitive inhibition: Ki=IC50/(1+[ATP]/Km).

purified CaMKIIα [3] = target: T1, purified CaMKIIα; details: read-out: previously published Km values of CaMKII for ATP; cited from earlier work
[4] = tested on: CaMKII movement to excitatory synapses; test: cLTP-induced CaMKII movement to excitatory synapses in the presence of soluble oligomeric Aβ; type: cell-based; details: 0.5 μM Aβ, 45 minutes prior to cLTP

Nc1ncnc2c1ncn2[C@@H]1O[C@H](COP(=O)(O)OP(=O)(O)O)[C@@H](O)[C@H]1O [ADP]
Ca2+/CaM-induced binding of CaMKIIα to immobilized GST-GluN2B-c versus vehicle (none) [1]: induced binding

Nc1ncnc2c1ncn2[C@@H]1O[C@H](COP(=O)(O)OP(=O)(O)OP(=O)(O)O)[C@@H](O)[C@H]1O [ATP]
Km (purified CaMKIIα [2]): 33.3 µM
Km (purified CaMKIIα [3]): 8 to 127 µM

C[C@@H](c1ccc(-c2ccccc2)c(F)c1)c1cc(/N=C(\N)N2CCOCC2)on1 [rimacalib]
rescue of Aβ-blocked cLTP-induced movement of CaMKII to the synapses ([4]; inhibitor 10 μM): rescued

Aβ: Amyloid beta (1-42) peptide purchased from Anaspec, soluble oligomeric preparation
effect of Aβ on cLTP-induced movement of CaMKII to the synapses [4]: blocks cLTP induced movement of CaMKII to the synapses
